Results reported in US9120807B2, “Thienopyrimidine compounds” (Vernalis (R&D) Ltd., priority 2007, dated 2015).

What was measured:
Assay type in all cases: cell-based
[1] = biological target: human adenosine A2B receptors (Homo sapiens (Human), UniProt P29275); experiment: FLIPR calcium flux functional assay, A2B receptor; settings: mammalian cell line expressing human A2B
Protocol: (§1) The use of a Fluorometric Imaging Plate Reader (FLIPR) to measure calcium flux in Adenosine-receptor expressing cells is a well-established technique. In this assay calcium flux is triggered by receptor activation and measured through the fluorescence of an incorporated calcium-sensitive dye. The potencies shown were determined using expressed human adenosine A2B receptors in mammalian cell lines. Selectivity values were obtained by using mammalian cell lines expressing the human adenosine A1, A2A and A3 receptors. Compound potency was determined from dose response curves and is reported as an IC50 value.
(§2) All examples were tested for activity in the functional assay described above.

[2] = biological target: human adenosine A1 receptor (Homo sapiens (Human), UniProt P30542); experiment: FLIPR calcium flux functional assay, A1 receptor; settings: for Kb: mammalian cell line expressing human A1, calcium flux; for A1/A2b: selectivity ratio of Kb values
Chain of human adenosine A1 receptor (P30542 whole entry): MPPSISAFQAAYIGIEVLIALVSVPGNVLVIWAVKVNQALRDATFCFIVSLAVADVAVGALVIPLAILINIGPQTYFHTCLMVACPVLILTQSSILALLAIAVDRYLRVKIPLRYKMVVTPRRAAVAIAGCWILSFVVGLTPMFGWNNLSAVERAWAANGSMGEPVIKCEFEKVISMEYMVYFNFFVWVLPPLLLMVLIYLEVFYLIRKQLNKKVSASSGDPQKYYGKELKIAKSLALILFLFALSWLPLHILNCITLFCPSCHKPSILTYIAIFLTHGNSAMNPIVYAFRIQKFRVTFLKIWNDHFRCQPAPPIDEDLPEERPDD
Protocol: as §1, §2

[3] = biological target: human adenosine A2A receptor (Homo sapiens (Human), UniProt P29274); experiment: FLIPR calcium flux functional assay, A2A receptor; settings: for Kb: mammalian cell line expressing human A2A, calcium flux; for A2a/A2b: selectivity ratio of Kb values
Chain of human adenosine A2A receptor (P29274 whole entry): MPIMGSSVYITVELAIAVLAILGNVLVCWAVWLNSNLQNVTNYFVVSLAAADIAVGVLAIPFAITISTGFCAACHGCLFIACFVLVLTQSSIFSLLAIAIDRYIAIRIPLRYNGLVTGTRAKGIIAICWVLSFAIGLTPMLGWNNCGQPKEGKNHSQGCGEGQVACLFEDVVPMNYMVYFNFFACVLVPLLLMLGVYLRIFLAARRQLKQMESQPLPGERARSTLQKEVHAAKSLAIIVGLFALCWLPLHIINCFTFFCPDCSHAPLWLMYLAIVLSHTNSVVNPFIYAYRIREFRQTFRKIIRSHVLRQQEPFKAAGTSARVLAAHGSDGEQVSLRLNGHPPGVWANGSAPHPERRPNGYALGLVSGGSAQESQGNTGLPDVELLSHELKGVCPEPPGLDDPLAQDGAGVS
Protocol: as §1, §2

[4] = biological target: human adenosine A3 receptor (Homo sapiens (Human), UniProt P0DMS8); experiment: FLIPR calcium flux functional assay, A3 receptor; settings: for Kb: mammalian cell line expressing human A3, calcium flux; for A3/A2b: selectivity ratio of Kb values
Chain of human adenosine A3 receptor (P0DMS8 whole entry): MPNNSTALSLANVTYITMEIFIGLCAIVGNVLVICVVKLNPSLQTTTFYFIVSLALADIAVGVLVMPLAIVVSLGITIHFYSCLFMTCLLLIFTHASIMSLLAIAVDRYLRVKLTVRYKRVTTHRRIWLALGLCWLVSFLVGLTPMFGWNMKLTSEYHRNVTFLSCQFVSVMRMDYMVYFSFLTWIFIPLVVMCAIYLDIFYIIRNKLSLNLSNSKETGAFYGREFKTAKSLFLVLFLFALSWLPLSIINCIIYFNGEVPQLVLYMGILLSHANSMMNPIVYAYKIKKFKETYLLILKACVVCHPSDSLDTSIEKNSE
Protocol: as §1, §2

Chain of human adenosine A2B receptors (P29275 whole entry): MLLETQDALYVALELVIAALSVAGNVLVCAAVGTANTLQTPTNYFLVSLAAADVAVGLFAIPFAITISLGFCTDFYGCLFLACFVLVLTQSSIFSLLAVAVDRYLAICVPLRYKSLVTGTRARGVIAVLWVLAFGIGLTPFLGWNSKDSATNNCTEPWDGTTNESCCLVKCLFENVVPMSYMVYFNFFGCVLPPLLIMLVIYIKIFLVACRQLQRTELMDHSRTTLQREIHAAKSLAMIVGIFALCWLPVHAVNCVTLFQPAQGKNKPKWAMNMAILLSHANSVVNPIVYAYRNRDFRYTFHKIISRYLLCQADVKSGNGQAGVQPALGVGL

Row | Kb [1] [nM] | Kb [2] [nM] | A1/A2b [2] | Kb [3] [nM] | A2a/A2b [3] | Kb [4] [nM] | A3/A2b [4] | SMILES
1 | 1.4 | 57.6 | 41 | 277 | 198 | 22.9 | 16 | CNc1cc2nc(NCc3cccnc3)nc(C(=O)c3cccs3)c2s1 [Example 6, {6-Methylamino-2-[(pyridin-3-ylmethyl)-amino]-thieno[3,2-d]pyrimidin-4-yl}-thiophen-2-yl-methanone]
2 | 6.5 | 19.4 | 3 | 318 | 49 | 130 | 20 | CN(C)c1cc2nc(NCc3cccnc3)nc(C(=O)c3cccs3)c2s1 [Example 7, {6-dimethylamino-2-[(pyridine-3-ylmethyl)-amino]-thieno[3,2-d]pyrimidin-4-yl}-thiophen-2-yl-methanone]
3 | 6.7 | 118 | 18 | 726 | 109 | 37.3 | 6 | CCNc1cc2nc(NCc3cccnc3)nc(C(=O)c3cccs3)c2s1 [Example 8, {6-Ethylamino-2-[(pyridin-3-ylmethyl)-amino]-thieno[3,2-d]pyrimidin-4-yl}-thiophen-2-yl-methanone]
4 | 7.1 | 1100 | 155 | 1400 | >196 | 233 | 33 | Nc1cc2nc(NCc3cccnc3)nc(C(=O)c3cccs3)c2s1 [Example 9, {6-Amino-2-[(pyridin-3-ylmethyl)-amino]-thieno[3,2-d]pyrimidin-4-yl}-thiophen-2-yl-methanone]
5 | 52.3 | 161 | 3 | 3750 | >71 | 747 | 14 | C=Cc1cc2nc(NCc3cccnc3)nc(C(=O)c3cccs3)c2s1 [Example 10, {2-[(Pyridin-3-ylmethyl)-amino]-6-vinyl-thieno[3,2-d]pyrimidin-4-yl}-thiophen-2-yl-methanone]
6 | 36.7 | 216 | 6 | 3750 | >102 | 361 | 10 | CCc1cc2nc(NCc3cccnc3)nc(C(=O)c3cccs3)c2s1 [Example 11, {6-Ethyl-2-[(pyridin-3-ylmethyl)-amino]-thieno[3,2-d]pyrimidin-4-yl}-thiophen-2-yl-methanone]
7 | 68.9 | 256 | 4 | 828 | 12 | 308 | 4 | O=C(c1cccs1)c1nc(NCc2cccnc2)nc2cc(NCc3cccnc3)sc12 [Example 12, {6-(3-picolylamino)-2-[(pyridin-3-ylmethyl)-amino]-thieno[3,2-d]pyrimidin-4-yl}-thiophen-2-yl-methanone]
